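Exposure lasted 48 hours, with cells grown in 96-well plates and compounds tested at five concentrations. TGI denotes the concentration required for complete inhibition of growth.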
Experiments:
Assay in all cases: growth of human tumour cells (NCI), 48 h
SK-MEL-2 melanoma = test system: SK-MEL-2 melanoma
HT29 colon = test system: HT29 colon
SNB-19 CNS = test system: SNB-19 CNS
MDA-N = test system: MDA-N
U251 CNS = test system: U251 CNS
SF-268 CNS = test system: SF-268 CNS
HOP-92 NSCLC = test system: HOP-92 NSCLC
T-47D breast = test system: T-47D breast
HL-60(TB) leukemia = test system: HL-60(TB) leukemia
UACC-62 melanoma = test system: UACC-62 melanoma
A498 renal = test system: A498 renal
IGROV1 ovarian = test system: IGROV1 ovarian
BT-549 breast = test system: BT-549 breast
MALME-3M melanoma = test system: MALME-3M melanoma
MOLT-4 leukemia = test system: MOLT-4 leukemia
MCF7 breast = test system: MCF7 breast
COLO 205 colon = test system: COLO 205 colon
OVCAR-8 ovarian = test system: OVCAR-8 ovarian
HOP-62 NSCLC = test system: HOP-62 NSCLC
OVCAR-3 ovarian = test system: OVCAR-3 ovarian

Compound | TGI (SK-MEL-2 melanoma) [µM] | TGI (HT29 colon) [µM] | TGI (SNB-19 CNS) [µM] | TGI (MDA-N) [µM] | TGI (U251 CNS) [µM] | TGI (SF-268 CNS) [µM] | TGI (HOP-92 NSCLC) [µM] | TGI (T-47D breast) [µM] | TGI (HL-60(TB) leukemia) [µM] | TGI (UACC-62 melanoma) [µM] | TGI (A498 renal) [µM] | TGI (IGROV1 ovarian) [µM] | TGI (BT-549 breast) [µM] | TGI (MALME-3M melanoma) [µM] | TGI (MOLT-4 leukemia) [µM] | TGI (MCF7 breast) [µM] | TGI (COLO 205 colon) [µM] | TGI (OVCAR-8 ovarian) [µM] | TGI (HOP-62 NSCLC) [µM] | TGI (OVCAR-3 ovarian) [µM]
Oc1cccc2c1[nH]c1c(C3=C[C@@]4(O)CC/C=C\CCCCN5CC[C@@H]3[C@]3(CC6/C=C\CCCCN6[C@H]34)C5)nccc12 (stereo not given in full) | 2.97 | 2.25 | 14.6 | 2 | 2.79 | 6.15 | 1.3 | 3.19 | 2.59 | 3.26 | 7.65 | 3.18 | 4.37 | 3.02 | 4.95 | 1.77 | 3.71 | 2.88 | 1.85 | 2.83
COc1ccc(C(c2ccc3c(c2)OCO3)N2C(=O)CCC2C(=O)O)cc1 (stereo not given) | > 100 | > 100 | > 100 | > 100 | > 100 | > 100 | > 100 | > 100 | > 100 | > 100 | > 100 | > 100 | > 100 | > 100 | > 100 | > 100 | > 100 | > 100 | > 100 | > 100
CC1C(O)Oc2cc3c(cc2C1c1ccccc1O)OCO3 (stereo not given) | 83.8 | 66.6 | > 100 | > 100 | > 100 | > 100 | 47.2 | > 100 | 36.7 | > 100 | 82.7 | > 100 | > 100 | 83.8 | 61.7 | > 100 | 31 | > 100 | > 100 | 99

Source: PubChem BioAssay (NCI)
